Experimental data as given in patent publication US20250295799A1, “ANTIBODY-DRUG CONJUGATES TARGETING GLYPICAN-3 AND METHODS OF USE” (Zymeworks BC Inc., priority 2022, published 2025).

Key:
[1] = test system: GFP-transfected CHO cells; assay: Binding to transfected CHO-S cells by flow cytometry (negative transfection control)
Protocol: Briefly, CHO—S cells were transiently transfected for −24 hours with a pTT5-based expression plasmid encoding human GPC3 or cynomolgus monkey GPC3, 0.5 μg DNA per 1 million cells, using the Neon™ Transfection System (Thermo Fisher Scientific Corp., Waltham, MA), to transiently express human or cynomolgus monkey GPC3. Cells transfected with GFP were used as negative transfection controls. Following transfection, cells were seeded at 50,000 cells/well in V-bottom 96-well plates and treated with antibody for 24 hours at 4° C. to prevent internalization. […] Following incubation and washing, fluorescence was detected by flow cytometry on a BD LSRFortessa™ Cell Analyzer (BD Biosciences, Franklin Lake, NJ) with 1,000 minimum events collected per well. AF647/APC-A GeoMean (fluorescence signal geometric mean, proportional to anti-Human AF647 binding) in live cell population was plotted against antibody concentration using GraphPad Prism Version 9 (GraphPad Software, San Diego, CA). The Bmax and Kd values were derived from the “Specific binding with Hill slope” nonlinear regression curve fit in GraphPad Prism Version 9.

[2] = test system: JHH-7 cells (high GPC3-expressing); assay: Internalization by flow cytometry (quenched AF488); type: cell-based; settings: JHH-7; 5 nM; 24 h
Protocol: (§1) Cells were seeded at 50,000 cells/well in 48-well plates and incubated overnight under standard culturing conditions (37° C./5% CO2) in Gibco™ Dulbecco's Modified Eagle Media (DMEM) (Thermo Fisher Scientific, Waltham, MA; Cat. No. 11995040) with 10% Fetal Bovine Serum (FBS) (Thermo Fisher Scientific, Waltham, MA; Cat. No. 12483020) for Hep G2 cells, and Gibco™ William's E Medium, GlutaMAX™ Supplement (Thermo Fisher Scientific, Waltham, MA; Cat. No. 32551020) with 10% FBS (Thermo Fisher Scientific, Waltham, MA; Cat. No. 12483020) for JHH-7 cells. Coupled antibodies were added to cells the following day at 10 nM or at 100 nM and incubated under standard culturing conditions for 5-24 hours to allow for internalization. Following incubation, cells were dissociated, washed, and surface AF488 fluorescence was quenched using an anti-AF488 antibody (Life Technologies, Carlsbad, CA; Cat. No. A-11094) at 100 nM for 30 minutes at 4° C. Quenched AF488 fluorescence (internalized fluorescence) was detected by flow cytometry on a BD LSRFortessa™ Cell Analyzer (BD Biosciences, Franklin Lake, NJ) with 1,000 minimum events collected per well.
as §1, with “CO2)” for “CO2) in Gibco™ Dulbecco's Modified Eagle Media (DMEM) (Thermo Fisher Scientific, Waltham, MA; Cat. No. 11995040) with 10% Fetal Bovine Serum (FBS) (Thermo Fisher Scientific, Waltham, MA; Cat. No. 12483020) for Hep G2 cells, and”, “12483020).” for “12483020) for JHH-7 cells.”, “5” for “10 nM or at 100”, “24” for “5-24”, “well. […]” for “well.”

[3] = molecular target: T1, human GPC3 on transfected CHO-S cells (Homo sapiens, UniProt P51654); assay: Binding to transfected CHO-S cells by flow cytometry; settings: 24 h at 4 °C
T1 construct: expressed in transfected cells; host or cells: CHO-S cells, transient transfection (Neon system)
Protocol: (§2) Following transfection, cells were seeded at 50,000 cells/well in V-bottom 96-well plates and treated with antibody for 24 hours at 4° C. to prevent internalization. […] Following incubation and washing, fluorescence was detected by flow cytometry on a BD LSRFortessa™ Cell Analyzer (BD Biosciences, Franklin Lake, NJ) with 1,000 minimum events collected per well.
as §2

## palivizumab
[1]
  binding to GFP-transfected CHO cells, in words: did not exhibit any binding
[2]
  internalization, in words: minimal internalization
[3]
  binding to CHO-S cells expressing human GPC3, in words: did not exhibit any binding
